CCCCCCCCCCCC[N+](C)(C)CCOc1ccccc1.[Br-]
solubility (mole fraction)
Details	283.15 K	288.15 K	293.15 K	298.15 K	303.15 K	308.15 K	313.15 K	318.15 K	323.15 K
in DMAc	0.0168	0.0216	0.0306	0.0416	0.0492	0.0659	0.0786	0.105	0.121
in DMF	0.0238	0.0292	0.039	0.0467	0.0609	0.0714	0.0861	0.115	0.132
in DMSO	–	–	0.037	0.045	0.0551	0.0668	0.0826	0.103	0.124
in NMP	0.0215	0.0284	0.042	0.0531	0.0702	0.0854	0.108	0.137	0.169
in acetonitrile	0.00445	0.00562	0.00743	0.00991	0.0135	0.0188	0.0277	0.0415	0.0625
in ethanol	0.0832	0.107	0.13	0.157	0.179	0.204	0.227	0.251	0.275
in isobutanol	–	0.092	0.118	0.145	0.175	0.196	0.224	0.248	0.287
in isopropanol	0.0234	0.043	0.07	0.105	0.139	0.17	0.199	0.228	0.258
in n-butanol	0.0833	0.108	0.134	0.157	0.181	0.224	0.263	0.306	0.346
in n-pentanol	0.0801	0.108	0.13	0.164	0.192	0.232	0.272	0.329	0.373
in n-propanol	0.0834	0.107	0.131	0.157	0.181	0.211	0.238	0.263	0.287
in tert-butanol	–	–	–	0.0866	0.127	0.165	0.198	0.241	0.273
